Test results taken from patent publication US8784893B2, “Polymer formulations for delivery of bioactive agents” (Carbylan Therapeutics, Inc., priority 2007, dated 2014).

Assay: In vitro release of solid steroid from Carb-S/PEG-DA crosslinked (CARBYLAN-SX) gels into PBS
Assay type: physicochemical
Details: solid drug in gel, 37° C., after 72 hours of incubation
Protocol: A 1.75% (w/v) solution of the Carb-S (Example 2) was prepared using deionized water and the pH was adjusted to 7.4. […] A 4% (w/v) polyethylene glycol diacrylate (PEG-DA) [Mw=3400] solution was prepared using deionized water and the pH was adjusted to 7.4. […] After vortexing the mixture, 0.2 mL of the mixture was added to a 15 mL plastic centrifuge tube. […] The samples were kept at 37° C. by placing the shaker in an incubation oven that was set at 37° C. At specific intervals (24 hrs), the PBS buffer supernatant was removed from the tube and the steroid concentration in the PBS buffer was determined using UV absorption spectroscopy. […] 10 mL fresh PBS buffer was added to each tube and the tubes were returned to the shaker. This gelation and release testing was repeated in a similar manner using solid beclamethasone dipropionate (10 mg). […] Controlled Release, 1 (2000)).

CCC(=O)OCC(=O)[C@@]1(OC(=O)CC)[C@@H](C)C[C@H]2[C@@H]3CCC4=CC(=O)C=C[C@]4(C)[C@@]3(Cl)[C@@H](O)C[C@@]21C [beclomethasone diproprionate]
Drug detected (released) from the CARBYLAN-SX polymer matrix: less than 5%
